Data as given in the supplement of paper PMC10307832.

Key:
Experiment in all cases: relative viability (nuclei count vs DMSO), 5 days (fraction); higher = more cells survive
[1] = compound: C1/C(=C\C2=CC=CS2)/C(=O)/C(=C/C3=CC=CS3)/C1 + CCNC(=O)c1noc(-c2cc(C(C)C)c(O)cc2O)c1-c1ccc(CN2CCOCC2)cc1 [Luminespib] (partner 0.01 µM)
In short: (§1)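 For relative viability, nuclei counts in treated wells were divided by those in vehicle wells. Lung cancer cell lines had been pin-tool dosed in 1536-well plates the day after seeding and cultured for 5 days, then fixed and stained in one step (final 0.05% Triton X-100, 1% formaldehyde, 1 ug/ml Hoechst) and imaged at 4×. Doses were one drug alone or a fixed anchor-drug dose plus five library-drug doses (not always all listed) in √10 steps, and values are duplicate-plate medians.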

TPCA-1 + Tozasertib = compound: C1=CC(=CC=C1C2=CC(=C(S2)NC(=O)N)C(=O)N)F [TPCA-1] + Cc1cc(Nc2cc(N3CCN(C)CC3)nc(Sc3ccc(NC(=O)C4CC4)cc3)n2)n[nH]1 [Tozasertib] (partner 0.1 µM)
In short: as §1

TPCA-1 + Phenformin = compound: C1=CC(=CC=C1C2=CC(=C(S2)NC(=O)N)C(=O)N)F [TPCA-1] + N=C(N)NC(=N)NCCc1ccccc1 [Phenformin] (partner 250 µM)
In short: as §1

TPCA-1 + AZD7762 = compound: C1=CC(=CC=C1C2=CC(=C(S2)NC(=O)N)C(=O)N)F [TPCA-1] + NC(=O)Nc1cc(-c2cccc(F)c2)sc1C(=O)N[C@H]1CCCNC1 [AZD7762] (partner 0.2 µM)
In short: as §1

Cell Line | relative viability ([1]; first compound 0.2 µM) | relative viability ([1]; first compound 0.6325 µM) | relative viability ([1]; first compound 2 µM) | relative viability ([1]; first compound 6.325 µM) | relative viability ([1]; first compound 20 µM) | relative viability (TPCA-1 + Tozasertib; first compound 0.04 µM) | relative viability (TPCA-1 + Tozasertib; first compound 0.1265 µM) | relative viability (TPCA-1 + Tozasertib; first compound 0.4 µM) | relative viability (TPCA-1 + Tozasertib; first compound 1.265 µM) | relative viability (TPCA-1 + Tozasertib; first compound 4 µM) | relative viability (TPCA-1 + Phenformin; first compound 0.04 µM) | relative viability (TPCA-1 + Phenformin; first compound 0.1265 µM) | relative viability (TPCA-1 + Phenformin; first compound 0.4 µM) | relative viability (TPCA-1 + Phenformin; first compound 1.265 µM) | relative viability (TPCA-1 + Phenformin; first compound 4 µM) | relative viability (TPCA-1 + AZD7762; first compound 0.04 µM) | relative viability (TPCA-1 + AZD7762; first compound 0.1265 µM) | relative viability (TPCA-1 + AZD7762; first compound 0.4 µM) | relative viability (TPCA-1 + AZD7762; first compound 1.265 µM) | relative viability (TPCA-1 + AZD7762; first compound 4 µM)
LU99A | 0.245 | 0.201 | 0.268 | 0.224 | 0.281 | 0.276 | 0.276 | 0.226 | 0.242 | 0.199 | 0.989 | 0.82 | 0.835 | 0.646 | 0.603 | 0.356 | 0.364 | 0.412 | 0.281 | 0.247
LXF-289 | 0.705 | 0.735 | 0.633 | 0.611 | 0.691 | 0.248 | 0.203 | 0.201 | 0.169 | 0.122 | 0.551 | 0.489 | 0.532 | 0.447 | 0.308 | 1.1 | 1.09 | 1.1 | 1.07 | 0.774
NCI-H23 | 0.237 | 0.197 | 0.2 | 0.203 | 0.194 | 0.303 | 0.348 | 0.332 | 0.308 | 0.248 | 0.813 | 0.764 | 0.759 | 0.681 | 0.353 | 0.338 | 0.261 | 0.21 | 0.235 | 0.223
NCI-H322M | 0.994 | 0.831 | 0.938 | 0.812 | 0.745 | 0.523 | 0.464 | 0.462 | 0.416 | 0.303 | 0.922 | 0.7 | 0.797 | 0.795 | 0.375 | 0.608 | 0.555 | 0.538 | 0.579 | 0.519
NCI-H358 | 0.324 | 0.453 | 0.337 |  | 0.341 | 0.126 | 0.113 | 0.108 | 0.105 | 0.0839 | 0.359 | 0.287 | 0.379 | 0.333 | 0.206 | 0.467 | 0.406 | 0.73 | 0.501 | 0.312
NCI-H441 | 0.331 | 0.377 | 0.343 | 0.37 | 0.345 | 0.946 | 0.632 | 0.506 | 0.379 | 0.28 | 1.15 | 0.688 | 0.934 | 0.703 | 0.283 | 1.21 | 0.915 | 1.19 | 1.04 | 1
NCI-H460 | 0.0304 | 0.0338 | 0.0299 | 0.02 | 0.0356 | 0.473 | 0.69 | 0.419 | 0.448 | 0.0397 | 0.607 | 0.523 | 0.53 | 0.502 | 0.336 | 0.676 | 0.684 | 0.738 | 0.622 | 0.731
NCI-H522 | 1.13 | 0.991 | 1.32 | 1.12 | 1.07 | 0.562 | 0.589 | 0.586 | 0.578 | 0.553 | 0.67 | 0.611 | 0.504 | 0.776 | 0.621 | 0.898 | 0.904 | 0.857 | 0.853 | 0.894
NCI-H596 | 1.06 | 1.09 | 1.08 | 0.912 | 0.992 | 0.834 | 0.689 | 0.916 | 0.86 | 0.759 | 0.857 | 0.678 | 0.764 | 0.746 | 0.658 | 1.21 | 1.04 | 1.19 | 1.44 | 1.02
NCI-H647 | 0.154 | 0.186 | 0.149 | 0.203 | 0.158 | 0.262 | 0.198 | 0.348 | 0.129 | 0.164 | 0.557 | 0.484 | 0.614 | 0.38 | 0.151 | 0.618 | 0.447 | 0.629 | 0.451 | 0.327
NCI-H650 | 0.901 | 0.701 | 0.826 | 0.735 | 0.944 | 0.707 | 0.708 | 0.734 | 0.546 | 0.256 | 0.493 | 0.436 | 0.466 | 0.311 | 0.293 | 1.03 | 0.895 | 1.1 | 0.541 | 0.906
NCI-H727 | 0.428 | 0.336 | 0.433 | 0.477 | 0.308 | 0.558 | 0.719 | 0.693 | 0.661 | 0.492 | 0.673 | 0.417 | 0.488 | 0.389 | 0.479 | 0.596 | 0.68 | 0.497 | 0.701 | 0.698
NCI-H838 | 0.387 | 0.253 | 0.309 | 0.222 | 0.281 | 0.257 | 0.232 | 0.249 | 0.217 | 0.223 | 0.612 | 0.516 | 0.672 | 0.367 | 0.288 | 0.972 | 0.855 | 0.935 | 0.801 | 0.886
NCI-H1355 | 0.71 | 0.7 | 0.733 | 0.687 | 0.662 | 0.595 | 0.574 | 0.597 | 0.461 | 0.254 | 0.515 | 0.415 | 0.47 | 0.393 | 0.305 | 0.831 | 0.7 | 0.756 | 0.675 | 0.707
NCI-H1395 | 0.743 | 0.701 | 0.704 | 0.738 | 0.663 | 0.906 | 0.69 | 0.766 | 0.657 | 0.61 | 0.445 | 0.488 | 0.449 | 0.436 | 0.499 | 0.398 | 0.378 | 0.381 | 0.37 | 0.444
NCI-H1437 | 1.26 | 1.23 | 1.06 | 0.95 | 1.09 | 0.434 | 0.39 | 0.42 | 0.385 | 0.372 | 0.336 | 0.297 | 0.277 | 0.297 | 0.299 | 1.19 |  | 1.14 | 1.03 | 0.906
NCI-H1651 | 0.97 | 0.933 | 1.13 | 0.751 | 0.716 | 0.678 | 0.646 | 0.794 | 0.652 | 0.521 | 0.361 | 0.295 | 0.368 | 0.327 | 0.262 | 0.486 | 0.439 | 0.462 | 0.431 | 0.401
NCI-H1666 | 1.09 | 1.01 | 1.02 | 0.49 | 1.04 | 0.627 | 0.598 | 0.635 | 0.543 | 0.461 | 0.547 | 0.569 | 0.533 | 0.529 | 0.581 | 0.895 | 0.659 | 0.79 | 0.714 | 0.757
NCI-H1734 | 0.193 | 0.19 | 0.209 | 0.22 | 0.211 | 0.272 | 0.29 | 0.266 | 0.264 | 0.264 | 0.42 | 0.363 | 0.42 | 0.391 | 0.287 | 0.558 | 0.504 | 0.604 | 0.639 | 0.374
NCI-H1755 | 0.51 | 0.402 | 0.642 | 0.341 | 0.274 | 0.57 | 0.526 | 0.52 | 0.511 | 0.374 | 0.665 | 0.553 | 0.6 | 0.503 | 0.427 | 0.444 | 0.634 | 0.402 | 0.337 | 0.378
NCI-H1793 | 0.229 | 0.178 | 0.189 | 0.153 | 0.179 | 0.33 |  | 0.307 | 0.235 | 0.165 | 0.364 |  | 0.297 | 0.402 | 0.261 | 0.53 | 0.649 | 0.751 | 0.392 | 0.144
NCI-H1915 | 0.851 | 0.786 | 0.741 | 0.356 | 0.821 | 0.435 | 0.428 | 0.435 | 0.362 | 0.229 | 0.403 | 0.362 | 0.385 | 0.321 | 0.289 | 0.744 | 0.679 | 0.671 | 0.588 | 0.617
NCI-H1944 | 0.762 | 0.731 | 0.674 | 0.695 | 0.626 | 0.239 | 0.252 | 0.239 | 0.247 | 0.208 | 0.238 | 0.202 | 0.217 | 0.176 | 0.189 | 0.474 | 0.484 | 0.565 | 0.455 | 0.474
NCI-H1975 | 0.313 | 0.163 | 0.194 | 0.312 | 0.177 | 0.796 | 0.697 | 0.737 | 0.407 | 0.312 | 0.445 | 0.392 | 0.435 | 0.405 | 0.312 | 0.717 | 0.682 | 0.763 | 0.923 | 0.522
NCI-H1993 | 0.727 | 0.765 | 0.726 | 0.763 | 1.78 | 0.573 | 0.562 | 0.655 | 0.606 | 0.559 | 0.425 | 0.536 | 0.55 | 0.421 | 0.485 | 0.972 | 0.748 | 0.745 | 0.747 | 0.598
NCI-H2085 | 0.446 | 0.433 | 0.453 | 0.41 | 0.503 | 0.863 | 0.72 | 0.746 | 0.735 | 0.479 | 0.837 | 0.616 | 0.693 | 0.555 | 0.389 |  | 1.02 | 1.01 | 0.9 | 0.669
NCI-H2087 | 0.215 | 0.161 | 0.177 | 0.133 | 0.158 | 0.243 | 0.239 | 0.28 | 0.2 | 0.116 | 0.475 | 0.417 | 0.417 | 0.351 | 0.154 | 1.24 | 1.3 | 1.34 | 1.29 | 0.758
